# Tested on: hippocampus neurons
# Assay: inhibition of reduction in survival rate of neurons, hippocampus (number of surviving cells)
# Assay type: cell-based, rat
# Conditions: Rattus norvegicus, Neuron, 72 h; 10^-6 g/ml; 3 days; control 100%; read-out: Number of surviving cells, Hippocampus
# Procedure: (§1) From a rat at the 18th day of pregnancy (having an 18 -day old embryo) the uterus was aseptically removed under etherification, and the fetus was obtained. The whole brain was collected from the fetus. From the brain placed in an L-15 medium were removed under a microscope the hippocampus, striate body, septum, cerebral cortex, and cerebellum. They were respectively minced with a knife. The minced tissue was treated by the addition of trypsin (0.25%) and DNase (0.01%) for 30 minutes at 37° C. to thereby isolate cells. The thus-isolated cells were suspended in Eagle's MEM medium supplemented with 10% fetal calf serum, and inoculated at a concentration of 4×10^4 cells/cm^2 into wells of a 48-well plate which had been coated with poly-L-lysin in advance. Following incubation for 24 hours, the medium was replaced by a serum-free DMEM/F-12 medium containing the drug. After three-days' additional incubation (six days for the striate body), the cells were fixed, stained, and the number of surviving cells in each well was counted. Compounds (2) through (14) were tested analogously to Example 1 using hippocampus cells prepared in a manner similar to Example 1. As structural comparative compounds, the following compounds were used: 4H-pyran-4-one (hereinafter referred as Compound (15) and 3-methoxy-6 -hydroxymethyl-4H-pyran-4-one (hereinafter referred to as Compound (16)).
row,SMILES,viability at 1 µg/mL [%]
1,"CCCCCc1oc(C)c(OC)c(=O)c1O [Compound (1), 3-Hydroxy-6-methyl-5-methoxy-2-pentyl-4H-pyran-4-one]",57.8

# Same assay, conditions: Rattus norvegicus, Neuron, 72 h; 10^-6 g/ml; control 100%; read-out: Inhibitory effect against reduction in survival rate of neurons (survival rate class)
row,SMILES,viability at 1 µg/mL [%]
1,"CCCc1oc(C)cc(=O)c1O [Compound (4), 3-Hydroxy-6-methyl-2-propyl-4H-pyran-4-one]",90 to 110

# Same assay, conditions: Rattus norvegicus, Neuron, 72 h; 10^-7 g/ml; 3 days; control 100%; read-out: Number of surviving cells, Hippocampus
row,SMILES,viability at 0.1 µg/mL [%]
1,"CCCCCc1oc(C)c(OC)c(=O)c1O [Compound (1), 3-Hydroxy-6-methyl-5-methoxy-2-pentyl-4H-pyran-4-one]",146

# Same assay, conditions: Rattus norvegicus, Neuron, 72 h; 10^-7 g/ml; control 100%; read-out: Inhibitory effect against reduction in survival rate of neurons (survival rate class)
row,SMILES,viability at 0.1 µg/mL [%]
1,"CCCc1oc(C)cc(=O)c1O [Compound (4), 3-Hydroxy-6-methyl-2-propyl-4H-pyran-4-one]",110 to 130

# Same assay, conditions: Rattus norvegicus, Neuron, 72 h; 10^-8 g/ml; 3 days; control 100%; read-out: Number of surviving cells, Hippocampus
row,SMILES,viability at 0.01 µg/mL [%]
1,"CCCCCc1oc(C)c(OC)c(=O)c1O [Compound (1), 3-Hydroxy-6-methyl-5-methoxy-2-pentyl-4H-pyran-4-one]",134

# Same assay, conditions: Rattus norvegicus, Neuron, 72 h; 10^-8 g/ml; control 100%; read-out: Inhibitory effect against reduction in survival rate of neurons (survival rate class)
row,SMILES,viability at 0.01 µg/mL [%]
1,"CCCc1oc(C)cc(=O)c1O [Compound (4), 3-Hydroxy-6-methyl-2-propyl-4H-pyran-4-one]",90 to 110

# Same assay, conditions: Rattus norvegicus, Neuron, 72 h; 10^-9 g/ml; 3 days; control 100%; read-out: Number of surviving cells, Hippocampus
row,SMILES,viability at 0.001 µg/mL [%]
1,"CCCCCc1oc(C)c(OC)c(=O)c1O [Compound (1), 3-Hydroxy-6-methyl-5-methoxy-2-pentyl-4H-pyran-4-one]",109

# Same assay, conditions: Rattus norvegicus, Neuron, 72 h; 10^-9 g/ml; control 100%; read-out: Inhibitory effect against reduction in survival rate of neurons (survival rate class)
row,SMILES,viability at 0.001 µg/mL [%]
1,"CCCc1oc(C)cc(=O)c1O [Compound (4), 3-Hydroxy-6-methyl-2-propyl-4H-pyran-4-one]",90 to 110

# Tested on: not listed separately
# Assay: oral toxicity (LD50), rats
# Conditions: rat, in vivo, read-out: 50% lethal death (LD50)
row,SMILES,LD50 [mg/kg]
1,"CCCCCc1oc(C)c(OC)c(=O)c1O [Compound (1), 3-Hydroxy-6-methyl-5-methoxy-2-pentyl-4H-pyran-4-one]",≥ 1000

# Tested on: hippocampus cells (neurites)
# Assay: branching promotion effect on neurites
# Assay type: cell-based, rat
# Conditions: one and two days after addition of the drug
# Procedure: The hippocampus cells obtained in a manner similar to that in Example 1 were incubated for 24 hours in a medium containing fetal calf serum, then for a further 24 hours in a serum-free medium. Subsequently, the drug was added. When one day and two days elapsed after addition of the drug, photographs were taken of the same cells. The number of branches from the longest neurite was counted.
row,SMILES,branching promotion effect on neurites (in words)
1,"CCCCCc1oc(C)c(OC)c(=O)c1O [Compound (1), 3-Hydroxy-6-methyl-5-methoxy-2-pentyl-4H-pyran-4-one]",confirmed to have a branching promotion effect on neurites

# Tested on: brain neurons
# Assay: inhibition of reduction of brain neurons (overall statement)
# Assay type: cell-based, rat
# Conditions: concentration-dependent; activity of control: 100%
# Procedure: as §1, with “counted.” for “counted. Compounds (2) through (14) were tested analogously to Example 1 using hippocampus cells prepared in a manner similar to Example 1. As structural comparative compounds, the following compounds were used: 4H-pyran-4-one (hereinafter referred as Compound (15) and 3-methoxy-6 -hydroxymethyl-4H-pyran-4-one (hereinafter referred to as Compound (16)).”
row,SMILES,concentration range of effect of inhibiting reduction of neurons [ng/mL]
1,"CCCCCc1oc(C)c(OC)c(=O)c1O [Compound (1), 3-Hydroxy-6-methyl-5-methoxy-2-pentyl-4H-pyran-4-one]",1 to 100

# Tested on: septum neurons
# Assay: inhibition of reduction in survival rate of neurons, septum (number of surviving cells)
# Assay type: cell-based
# Conditions: Rattus norvegicus, Neuron, 72 h; 10^-6 g/ml; 3 days; control 100%
# Procedure: as §1, with “counted.” for “counted. Compounds (2) through (14) were tested analogously to Example 1 using hippocampus cells prepared in a manner similar to Example 1. As structural comparative compounds, the following compounds were used: 4H-pyran-4-one (hereinafter referred as Compound (15) and 3-methoxy-6 -hydroxymethyl-4H-pyran-4-one (hereinafter referred to as Compound (16)).”
row,SMILES,viability at 1 µg/mL [%]
1,"CCCCCc1oc(C)c(OC)c(=O)c1O [Compound (1), 3-Hydroxy-6-methyl-5-methoxy-2-pentyl-4H-pyran-4-one]",71.6

# Same assay, conditions: Rattus norvegicus, Neuron, 72 h; 10^-7 g/ml; 3 days; control 100%
row,SMILES,viability at 0.1 µg/mL [%]
1,"CCCCCc1oc(C)c(OC)c(=O)c1O [Compound (1), 3-Hydroxy-6-methyl-5-methoxy-2-pentyl-4H-pyran-4-one]",157

# Same assay, conditions: Rattus norvegicus, Neuron, 72 h; 10^-8 g/ml; 3 days; control 100%
row,SMILES,viability at 0.01 µg/mL [%]
1,"CCCCCc1oc(C)c(OC)c(=O)c1O [Compound (1), 3-Hydroxy-6-methyl-5-methoxy-2-pentyl-4H-pyran-4-one]",150

# Same assay, conditions: Rattus norvegicus, Neuron, 72 h; 10^-9 g/ml; 3 days; control 100%
row,SMILES,viability at 0.001 µg/mL [%]
1,"CCCCCc1oc(C)c(OC)c(=O)c1O [Compound (1), 3-Hydroxy-6-methyl-5-methoxy-2-pentyl-4H-pyran-4-one]",128

# Tested on: cerebellum neurons
# Assay: inhibition of reduction in survival rate of neurons, cerebellum (number of surviving cells)
# Assay type: cell-based
# Conditions: Rattus norvegicus, Neuron, 72 h; 10^-6 g/ml; 3 days; control 100%
# Procedure: as §1, with “counted.” for “counted. Compounds (2) through (14) were tested analogously to Example 1 using hippocampus cells prepared in a manner similar to Example 1. As structural comparative compounds, the following compounds were used: 4H-pyran-4-one (hereinafter referred as Compound (15) and 3-methoxy-6 -hydroxymethyl-4H-pyran-4-one (hereinafter referred to as Compound (16)).”
row,SMILES,viability at 1 µg/mL [%]
1,"CCCCCc1oc(C)c(OC)c(=O)c1O [Compound (1), 3-Hydroxy-6-methyl-5-methoxy-2-pentyl-4H-pyran-4-one]",65.3

# Same assay, conditions: Rattus norvegicus, Neuron, 72 h; 10^-7 g/ml; 3 days; control 100%
row,SMILES,viability at 0.1 µg/mL [%]
1,"CCCCCc1oc(C)c(OC)c(=O)c1O [Compound (1), 3-Hydroxy-6-methyl-5-methoxy-2-pentyl-4H-pyran-4-one]",147

# Same assay, conditions: Rattus norvegicus, Neuron, 72 h; 10^-8 g/ml; 3 days; control 100%
row,SMILES,viability at 0.01 µg/mL [%]
1,"CCCCCc1oc(C)c(OC)c(=O)c1O [Compound (1), 3-Hydroxy-6-methyl-5-methoxy-2-pentyl-4H-pyran-4-one]",136

# Same assay, conditions: Rattus norvegicus, Neuron, 72 h; 10^-9 g/ml; 3 days; control 100%
row,SMILES,viability at 0.001 µg/mL [%]
1,"CCCCCc1oc(C)c(OC)c(=O)c1O [Compound (1), 3-Hydroxy-6-methyl-5-methoxy-2-pentyl-4H-pyran-4-one]",137

# Tested on: not listed separately
# Assay: oral toxicity (LD50), mice
# Conditions: mouse, in vivo, read-out: 50% lethal death (LD50)
row,SMILES,LD50 [mg/kg]
1,"CCCCCc1oc(C)c(OC)c(=O)c1O [Compound (1), 3-Hydroxy-6-methyl-5-methoxy-2-pentyl-4H-pyran-4-one]",≥ 1000

# Tested on: striate body neurons
# Assay: inhibition of reduction in survival rate of neurons, striate body (number of surviving cells)
# Assay type: cell-based
# Conditions: Rattus norvegicus, Neuron, 144 h; 10^-6 g/ml; 6 days; control 100%
# Procedure: as §1, with “counted.” for “counted. Compounds (2) through (14) were tested analogously to Example 1 using hippocampus cells prepared in a manner similar to Example 1. As structural comparative compounds, the following compounds were used: 4H-pyran-4-one (hereinafter referred as Compound (15) and 3-methoxy-6 -hydroxymethyl-4H-pyran-4-one (hereinafter referred to as Compound (16)).”
row,SMILES,viability at 1 µg/mL [%]
1,"CCCCCc1oc(C)c(OC)c(=O)c1O [Compound (1), 3-Hydroxy-6-methyl-5-methoxy-2-pentyl-4H-pyran-4-one]",83.8

# Same assay, conditions: Rattus norvegicus, Neuron, 144 h; 10^-7 g/ml; 6 days; control 100%
row,SMILES,viability at 0.1 µg/mL [%]
1,"CCCCCc1oc(C)c(OC)c(=O)c1O [Compound (1), 3-Hydroxy-6-methyl-5-methoxy-2-pentyl-4H-pyran-4-one]",160

# Same assay, conditions: Rattus norvegicus, Neuron, 144 h; 10^-8 g/ml; 6 days; control 100%
row,SMILES,viability at 0.01 µg/mL [%]
1,"CCCCCc1oc(C)c(OC)c(=O)c1O [Compound (1), 3-Hydroxy-6-methyl-5-methoxy-2-pentyl-4H-pyran-4-one]",139

# Same assay, conditions: Rattus norvegicus, Neuron, 144 h; 10^-9 g/ml; 6 days; control 100%
row,SMILES,viability at 0.001 µg/mL [%]
1,"CCCCCc1oc(C)c(OC)c(=O)c1O [Compound (1), 3-Hydroxy-6-methyl-5-methoxy-2-pentyl-4H-pyran-4-one]",126

# Tested on: cerebral cortex neurons
# Assay: inhibition of reduction in survival rate of neurons, cerebral cortex (number of surviving cells)
# Assay type: cell-based
# Conditions: Rattus norvegicus, Cerebral cortex neuron, 72 h; 10^-6 g/ml; 3 days; control 100%
# Procedure: as §1, with “counted.” for “counted. Compounds (2) through (14) were tested analogously to Example 1 using hippocampus cells prepared in a manner similar to Example 1. As structural comparative compounds, the following compounds were used: 4H-pyran-4-one (hereinafter referred as Compound (15) and 3-methoxy-6 -hydroxymethyl-4H-pyran-4-one (hereinafter referred to as Compound (16)).”
row,SMILES,viability at 1 µg/mL [%]
1,"CCCCCc1oc(C)c(OC)c(=O)c1O [Compound (1), 3-Hydroxy-6-methyl-5-methoxy-2-pentyl-4H-pyran-4-one]",90.2

# Same assay, conditions: Rattus norvegicus, Cerebral cortex neuron, 72 h; 10^-7 g/ml; 3 days; control 100%
row,SMILES,viability at 0.1 µg/mL [%]
1,"CCCCCc1oc(C)c(OC)c(=O)c1O [Compound (1), 3-Hydroxy-6-methyl-5-methoxy-2-pentyl-4H-pyran-4-one]",125

# Same assay, conditions: Rattus norvegicus, Cerebral cortex neuron, 72 h; 10^-8 g/ml; 3 days; control 100%
row,SMILES,viability at 0.01 µg/mL [%]
1,"CCCCCc1oc(C)c(OC)c(=O)c1O [Compound (1), 3-Hydroxy-6-methyl-5-methoxy-2-pentyl-4H-pyran-4-one]",107

# Same assay, conditions: Rattus norvegicus, Cerebral cortex neuron, 72 h; 10^-9 g/ml; 3 days; control 100%
row,SMILES,viability at 0.001 µg/mL [%]
1,"CCCCCc1oc(C)c(OC)c(=O)c1O [Compound (1), 3-Hydroxy-6-methyl-5-methoxy-2-pentyl-4H-pyran-4-one]",104

# From patent US5962480A, “Drug for ameliorating brain diseases” (Wakunaga Pharmaceutical Co., Ltd., priority 1995, dated 1999)
